Experimental data as given in US20120231448A1, “LOW CELL TOXICITY […]” (priority 2011, published 2012).

Tests used:
[1] = system: 293 cells transformed with the Hygromycin B phosphotransferase gene; assay: LD 50 for resistant cells; conditions: resistant 293 cells; for LD 50 for different impurities for resistant cells: isolated impurities added to media
[2] = system: Tobacco Calli cells transformed with the Hygromycin B phosphotransferase gene; assay: LD 50 for resistant cells; conditions: for LD 50 for different impurities for resistant cells: isolated impurities added to media
Fungi cell = assay: LD 50 hygromycin B concentration for sensitive cells; assay type: cell-based
Tobacco Calli cells = assay: as above; assay type: cell-based
resistant cells = conditions: comparison between batches / impurities
293 cell = assay: LD 50 hygromycin B concentration for sensitive cells; assay type: cell-based; conditions: sensitive 293 cell
Escherichia Coli = assay: as above; assay type: cell-based

Row | Compound | LD 50 for different impurities for resistant cells [1] [µg/mL] | LD 50 for different impurities for resistant cells [2] [µg/mL] | LD 50 hygromycin B concentration for resistant cells ([1]; hygromycin B batches) [µg/mL] | LD 50 hygromycin B concentration for resistant cells ([2]; hygromycin B batches) [µg/mL] | LD 50 hygromycin B concentration for sensitive cells (Fungi cell) [µg/mL] | LD 50 hygromycin B concentration for sensitive cells (Tobacco Calli cells) [µg/mL] | toxicity to resistant cells (in words) (resistant cells) | LD 50 hygromycin B concentration for sensitive cells (293 cell) [µg/mL] | LD 50 hygromycin B concentration for sensitive cells (Escherichia Coli) [µg/mL]
1 | Destomic acid [Impurity A] | 240 | 193 | – | – | – | – | – | – | –
2 | NC1CC(N)C(O)C(OCC(O)C(O)C(O)C(O)CO)C1O (centres unmarked) [Impurity D] | 1.7 | 0.5 | – | – | – | – | – | – | –
3 | CN[C@H]1C[C@@H](N)[C@H](O)[C@@H](O[C@@H]2O[C@H](CO)[C@H](O)[C@@H]3OC4(O[C@H]23)O[C@H]([C@@H](N)CO)[C@H](O)[C@H](O)[C@H]4O)[C@@H]1O (some centres unmarked) [Batch T-94, hygromycin B] | – | – | 394 | 490 | 14.2 | 4.7 | lower toxicity to resistant cells | 8.5 | 8.2
